Assays:
Experiment in all cases: IC50 for competition of protein binding to Kinobeads
Conditions in all cases: assay detail: Kinobeads competition in P. falciparum blood-stage lysate
UniProt Q8IDD4 = biological target: UniProt Q8IDD4
UniProt C0H4X1 = biological target: UniProt C0H4X1
UniProt Q8ILG6 = biological target: UniProt Q8ILG6
UniProt Q8IDX8 = biological target: UniProt Q8IDX8
UniProt C6KTB1 = biological target: UniProt C6KTB1
UniProt Q8IEN3 = biological target: UniProt Q8IEN3
UniProt Q8IBH7 = biological target: UniProt Q8IBH7
UniProt Q8I546 = biological target: UniProt Q8I546
UniProt C6KTA7 = biological target: UniProt C6KTA7
UniProt Q8I2R0 = biological target: UniProt Q8I2R0
UniProt Q8IDB0 = biological target: UniProt Q8IDB0
UniProt Q8II23 = biological target: UniProt Q8II23
UniProt C6KT34 = biological target: UniProt C6KT34
UniProt Q8IDZ9 = biological target: UniProt Q8IDZ9
UniProt Q8II72 = biological target: UniProt Q8II72
UniProt Q8ILT5 = biological target: UniProt Q8ILT5
UniProt Q8I3J0 = biological target: UniProt Q8I3J0
UniProt Q8I534 = biological target: UniProt Q8I534
UniProt Q8I535 = biological target: UniProt Q8I535
UniProt Q9U0K8 = biological target: UniProt Q9U0K8
UniProt Q8IBC3 = biological target: UniProt Q8IBC3
UniProt Q8IM66 = biological target: UniProt Q8IM66
UniProt C0H491 = biological target: UniProt C0H491
UniProt Q8IL08 = biological target: UniProt Q8IL08
UniProt Q8IAV1 = biological target: UniProt Q8IAV1
UniProt C0H4L1 = biological target: UniProt C0H4L1
UniProt Q8I3I6 = biological target: UniProt Q8I3I6
UniProt Q8I2V4 = biological target: UniProt Q8I2V4
UniProt Q8I1X5 = biological target: UniProt Q8I1X5
UniProt Q8ILW8 = biological target: UniProt Q8ILW8
UniProt C0H4K6 = biological target: UniProt C0H4K6
UniProt Q8I2P2 = biological target: UniProt Q8I2P2
UniProt C6S3E1 = biological target: UniProt C6S3E1
UniProt O96259 = biological target: UniProt O96259
UniProt Q8IEK3 = biological target: UniProt Q8IEK3
UniProt O77345 = biological target: UniProt O77345
UniProt Q7KQK6 = biological target: UniProt Q7KQK6
UniProt Q8IEF5 = biological target: UniProt Q8IEF5
UniProt Q8IJT1 = biological target: UniProt Q8IJT1
UniProt Q8IIB4 = biological target: UniProt Q8IIB4
UniProt Q8IAU3 = biological target: UniProt Q8IAU3
UniProt Q8IIW5 = biological target: UniProt Q8IIW5
UniProt Q8IL41 = biological target: UniProt Q8IL41
UniProt Q8IID2 = biological target: UniProt Q8IID2
UniProt Q5MYR6 = biological target: UniProt Q5MYR6
UniProt Q8II53 = biological target: UniProt Q8II53
UniProt O97225 = biological target: UniProt O97225
UniProt Q8IBI0 = biological target: UniProt Q8IBI0
UniProt Q8I1R5 = biological target: UniProt Q8I1R5
UniProt Q8I4W4 = biological target: UniProt Q8I4W4
UniProt O96278 = biological target: UniProt O96278
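Note: native unpurified kinases from lysate captured on beads bearing immobilized kinase inhibitors, with bead-bound kinases quantified by mass spectrometry across compound doses.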

Sequence of UniProt Q8IBH7 (Q8IBH7 whole entry): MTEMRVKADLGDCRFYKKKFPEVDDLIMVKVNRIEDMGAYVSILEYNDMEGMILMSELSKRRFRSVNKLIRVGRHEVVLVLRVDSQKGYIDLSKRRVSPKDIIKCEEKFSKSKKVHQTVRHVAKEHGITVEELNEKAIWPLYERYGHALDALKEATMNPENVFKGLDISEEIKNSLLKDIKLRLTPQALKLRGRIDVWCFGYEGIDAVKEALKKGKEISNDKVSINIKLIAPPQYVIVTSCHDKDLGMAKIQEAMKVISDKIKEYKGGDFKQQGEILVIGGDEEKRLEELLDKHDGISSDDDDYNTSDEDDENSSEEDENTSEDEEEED
Sequence of UniProt Q8ILT5 (Q8ILT5 whole entry): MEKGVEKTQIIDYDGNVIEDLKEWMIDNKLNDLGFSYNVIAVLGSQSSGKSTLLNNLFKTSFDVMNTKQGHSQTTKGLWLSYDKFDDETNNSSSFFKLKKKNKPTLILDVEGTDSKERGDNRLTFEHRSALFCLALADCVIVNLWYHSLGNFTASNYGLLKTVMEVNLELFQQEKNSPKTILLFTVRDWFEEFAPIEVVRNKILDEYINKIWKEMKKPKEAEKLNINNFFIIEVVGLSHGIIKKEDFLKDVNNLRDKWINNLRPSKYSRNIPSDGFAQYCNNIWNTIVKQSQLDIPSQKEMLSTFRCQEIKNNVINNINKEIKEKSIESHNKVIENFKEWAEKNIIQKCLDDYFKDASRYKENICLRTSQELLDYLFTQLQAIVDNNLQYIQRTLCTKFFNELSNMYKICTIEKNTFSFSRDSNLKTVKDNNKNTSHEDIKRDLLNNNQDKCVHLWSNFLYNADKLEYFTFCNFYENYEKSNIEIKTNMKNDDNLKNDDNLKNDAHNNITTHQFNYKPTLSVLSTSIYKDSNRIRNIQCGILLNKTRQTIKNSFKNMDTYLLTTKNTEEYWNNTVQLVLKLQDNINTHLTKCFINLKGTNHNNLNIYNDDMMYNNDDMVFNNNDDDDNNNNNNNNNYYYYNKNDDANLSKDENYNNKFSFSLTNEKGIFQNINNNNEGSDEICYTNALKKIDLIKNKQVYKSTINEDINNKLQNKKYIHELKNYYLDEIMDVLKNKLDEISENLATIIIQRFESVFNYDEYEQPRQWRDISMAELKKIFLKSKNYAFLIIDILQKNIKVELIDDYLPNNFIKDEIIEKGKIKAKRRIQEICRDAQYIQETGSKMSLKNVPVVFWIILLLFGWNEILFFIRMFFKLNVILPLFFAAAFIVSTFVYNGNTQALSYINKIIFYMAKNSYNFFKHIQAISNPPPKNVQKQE

## O=c1[nH]c2ccc(Cl)cc2c(NC2CN3CCC2CC3)c1-c1nc2ccccc2[nH]1 (stereo unspecified) [CHIR-124]
UniProt Q8IDD4
  IC50: > 20 µM
UniProt C0H4X1
  IC50: > 20 µM
UniProt Q8ILG6
  IC50: > 20 µM
UniProt Q8IDX8
  IC50: > 20 µM
UniProt C6KTB1
  IC50: > 20 µM
UniProt Q8IEN3
  IC50: > 20 µM
UniProt Q8IBH7
  IC50: > 20 µM
UniProt Q8I546
  IC50: > 20 µM
UniProt C6KTA7
  IC50: > 20 µM
UniProt Q8I2R0
  IC50: > 20 µM
UniProt Q8IDB0
  IC50: > 20 µM
UniProt Q8II23
  IC50: > 20 µM
UniProt C6KT34
  IC50: > 20 µM
UniProt Q8IDZ9
  IC50: > 20 µM
UniProt Q8II72
  IC50: > 20 µM
UniProt Q8ILT5
  IC50: > 20 µM
UniProt Q8I3J0
  IC50: > 20 µM
UniProt Q8I534
  IC50: > 20 µM
UniProt Q8I535
  IC50: < 0.0823 µM
UniProt Q9U0K8
  IC50: 5.2 µM
UniProt Q8IBC3
  IC50: > 20 µM
UniProt Q8IM66
  IC50: > 20 µM
UniProt C0H491
  IC50: > 20 µM
UniProt Q8IL08
  IC50: > 20 µM
UniProt Q8IAV1
  IC50: > 20 µM
UniProt C0H4L1
  IC50: > 20 µM
UniProt Q8I3I6
  IC50: > 20 µM
UniProt Q8I2V4
  IC50: > 20 µM
UniProt Q8I1X5
  IC50: > 20 µM
UniProt Q8ILW8
  IC50: > 20 µM
UniProt C0H4K6
  IC50: > 20 µM
UniProt Q8I2P2
  IC50: > 20 µM
UniProt C6S3E1
  IC50: > 20 µM
UniProt O96259
  IC50: > 20 µM
UniProt Q8IEK3
  IC50: > 20 µM
UniProt O77345
  IC50: > 20 µM
UniProt Q7KQK6
  IC50: > 20 µM
UniProt Q8IEF5
  IC50: > 20 µM
UniProt Q8IJT1
  IC50: > 20 µM
UniProt Q8IIB4
  IC50: > 20 µM
UniProt Q8IAU3
  IC50: > 20 µM
UniProt Q8IIW5
  IC50: > 20 µM
UniProt Q8IL41
  IC50: > 20 µM
UniProt Q8IID2
  IC50: > 20 µM
UniProt Q5MYR6
  IC50: > 20 µM
UniProt Q8II53
  IC50: > 20 µM
UniProt O97225
  IC50: > 20 µM
UniProt Q8IBI0
  IC50: > 20 µM
UniProt Q8I1R5
  IC50: > 20 µM
UniProt Q8I4W4
  IC50: > 20 µM
UniProt O96278
  IC50: > 20 µM
